Test results published in patent publication US20130261045A1, “GREEN TEA POLYPHENOL ALPHA SECRETASE ENHANCERS AND METHODS OF USE” (UNIVERSITY OF SOUTH FLORIDA, priority 2005, published 2013).

Key:
[1] = test system: Aβ generation; assay: Aβ ELISA, conditioned media of APP-transfected N2a cells (Example 1); format: cell-based, murine
Protocol: (§1) Aβ1-40 and 1-42 peptides were analyzed in the conditioned media from SweAPP N2a cells (FIGS. 1A, 1C, 1D) and transgenic APPsw mouse-derived primary neuronal cells (FIG. 1B) by ELISA (n=3 for each condition).
(§2) TAPI-1, β and γ-secretase inhibitors were obtained from Calbiochem (San Diego, Calif.). Green tea extract (75% polyphenols) was obtained from the Vitamin Shoppe™ (North Bergen, N.J.).
(§3) Cultured cells were lysed in ice-cold-lysis buffer (20 mM Tris, pH 7.5, 150 mM NaCl, 1 mM EDTA, 1 mM EGTA, 1% v/v Triton X-100, 2.5 mM sodium pyropgosphate, 1 mM β-glycerolphosphate, 1 mM Na3VO4, 1 μg/mL leupeptin, 1 mM PMSF) as previously described (Tan et al., 2002). Mouse brains were isolated under sterile conditions on ice and placed in ice-cold lysis buffer. Brains were then sonicated on ice for approximately 3 min, allowed to stand for 15 min at 4° C., and centrifuged at 15,000 rpm for 15 min. Total Aβ1-42 species were detected by acid extraction of brain homogenates in 5 M guanidine buffer (ret), followed by a 1:10 dilution in lysis buffer. Soluble Aβ1-42 was directly detected in cultured cell lysates or brain homogenates prepared with lysis buffer described above by a 1:4 or 1:10 dilution, respectively. Aβ1-42 was quantified in these samples using the Aβ1-42 ELISA kit (BioSource, Camarillo, Calif.) in accordance with the manufacturer's instructions, except that standards included a 0.5 M guanidine buffer.
In order to examine the effects of green tea's components on APP cleavage processing, for a first step, N2a neuroblastoma cells overproducing Aβ were treated with each of the aforementioned components at a wide range of doses. In addition, doses of (+)-catechin hydrate (CH) and gallic acid monohydrate (GAM) were included in the first step.

[2] = test system: Aβ generation; assay: Aβ ELISA, transgenic APPsw mouse-derived primary neuronal cells (Example 1); format: cell-based; settings: 20 μM, FIG. 1B
Protocol: as §1, §2
as §3, with “lysis buffer. […] Total Aβ1-42” for “lysis buffer. Brains were then sonicated on ice for approximately 3 min, allowed to stand for 15 min at 4° C., and centrifuged at 15,000 rpm for 15 min. Total Aβ1-42”, “guanidine buffer. […]” for “guanidine buffer.”

[3] = test system: TNF-α; assay: TNF-α levels in cultured medium of microglial cells; format: cell-based; settings: EGCG treatment, data not shown
From the text: It has been shown that TACE is critically involved in TNF-α maturation associated with pro-inflammatory responses (Moro, M. A. et al., 2003).

[4] = test system: ADAM10 mRNA; assay: RT-PCR of ADAM10 mRNA in SweAPP N2a cells; format: cell-based, murine; settings: various doses of EGCG, 8 h
Protocol: Analysis of murine ADAM10 was conducted according to previously published methods (Ehrhart et al., 2005; Park et al., 2001). Briefly, total RNA was isolated from SweAPP N2a cells and subjected to reverse transcription utilizing a commercially available kit (cDNA Cycle® kit; Invitrogen, Carlsbad, Calif.) according to the manufacturer's instructions on a Bio-Rad iCycler thermocycler. […] Thermocycler conditions consisted of an initial denaturing step at 95° C. for 15 min, followed by 35 cycles of 94° C. for 30 s, 50° C. for 1 min, and 72° C. for 1 min at, and a final extension step at 72° C. for 10 min. Resolution and analysis of PCR products (murine ADAM10: 881 bp, murine γ-actin: 357 bp) band densities was conducted by ethidium bromide-stained agarose gel electrophoresis and identified using UV transillumination by comparisons with molecular weight markers (Invitrogen). Samples that were not subjected to reverse transcription were run in parallel as negative controls to rule out DNA contamination as a template for PCR products (data not shown). A “no template control” was also included for each primer set as a further negative control (data not shown). Amplification of γ-actin was used to normalize for input cDNA.

[5] = test system: ADAM10; assay: Western blot of ADAM10 maturation in primary murine neuronal cultures; format: cell-based; settings: various doses, 8 h
Protocol: Cultured cells were lysed in ice-cold lysis buffer described above, and an aliquot corresponding to 50 μg of total protein was electrophoretically separated using 16.5% Tris-tricine gels. Electrophoresed proteins were then transferred to PVDF membranes (Bio-Rad, Richmond, Calif.), washed in ddH2O, and blocked for 1 h at ambient temperature in Tris-buffered saline (TBS; Bio-Rad) containing 5% (w/v) non-fat dry milk. After blocking, membranes were hybridized for 1 h at ambient temperature with various primary antibodies. Membranes were then washed 3 times for 5 min each in ddH2O and incubated for 1 h at ambient temperature with the appropriate HRP-conjugated secondary antibody (1:1,000, Pierce Biotechnology, Inc. Rockford, Ill.). All antibodies were diluted in TBS containing 5% (w/v) of non-fat dry milk. Blots were developed using the luminol reagent (Pierce Biotechnology). Densitometric analysis was done using the Fluor-S MultiImager™ with Quantity One™ software (Bio-Rad). […] Antibodies used for Western blot included: antibody 369 (which recognizes the carboxyl-terminus of APP; 1:1,500), clone 22C11 (against the amino-terminus of APP; 1:1,500), clone 6E10 (against amino acids 1-17 of Aβ; 1:1,500), anti-ADAM9 (1:500), and antibodies against ADAM10 (1:500), ADAM17 (1:500) or actin (1:1,500; as an internal reference control). […]

O=C(O[C@@H]1Cc2c(O)cc(O)cc2O[C@@H]1c1cc(O)c(O)c(O)c1)c1cc(O)c(O)c(O)c1 [EGCG, (−)-epigallocatechin-3-gallate]
reduction of Aβ1-42 generation over control (PBS) ([1]; 20 μM, human APP695-transfected N2a cells, FIG. 1A): 60% | ability to inhibit Aβ generation, purified EGCG versus same amounts EGCG present in GT mixtures ([1]; SweAPP N2a cells, equivalent doses, FIG. 1D): much greater | reduction of Aβ1-42 generation over control (PBS) [2]: 40% | TNF-α levels in cultured medium [3]: no associated elevation | ADAM10 mRNA levels [4]: no significant between-EGCG dose differences | mature ADAM10 [5]: dose-dependent increases
